Measurements as given in ChEMBL document CHEMBL1150489, “Increase of the anti-HIV activity of D4T in human T-cell culture by the use of the sate pronucleotide approach” (Bioorg Med Chem Lett, 1995).

Tests used:
MT4 [1] = assay: (§1) Tested in vitro for the antiviral activity in MT-4 cells infected with HIV-1; format: functional; details: Homo sapiens
CEM-SS [2] = assay: (§2) Tested in vitro for the antiviral activity in CEM-SS cells infected with HIV-1; format: functional, Homo sapiens
CEM-SS [3] = assay: as §2; format: functional; details: Homo sapiens
CEM-TK(-) [4] = assay: (§3) Tested in vitro for the antiviral activity in CEM/TK- cells infected with HIV-1; format: functional, cell-based; details: Homo sapiens
[5] = (§4) Tested in vitro for the antiviral activity in PBM cells infected with HIV-1; format: functional, cell-based; details: Homo sapiens, PBMC
CEM-SS [6] = assay: as §2; format: functional, cell-based; details: Homo sapiens
CEM-TK(-) [7] = assay: as §3; format: functional, Homo sapiens
[8] = as §4; format: functional; details: Homo sapiens, PBMC
CEM-TK(-) [9] = assay: as §3; format: functional; details: Homo sapiens
MT4 [10] = assay: as §1; format: functional, Homo sapiens
MT4 [11] = assay: as §1; format: functional, cell-based; details: Homo sapiens

| EC50 (CEM-TK(-) [4]) [µM] | EC50 [5] [µM] | EC50 (CEM-SS [6]) [µM] | Compound | CC50 (MT4 [1]) [µM] | Reduction (CEM-SS [2]) [%] | CC50 (CEM-SS [3]) [µM] | Reduction (CEM-TK(-) [7]) [%] | CC50 [8] [µM] | CC50 (CEM-TK(-) [9]) [µM] | Reduction (MT4 [10]) [%] | EC50 (MT4 [11]) [µM] |
| --- | --- | --- | --- | --- | --- | --- | --- | --- | --- | --- | --- |
| 10 | 0.05 | 0.059 | Cc1cn([C@H]2C=C[C@@H](CO)O2)c(=O)[nH]c1=O [STAVUDINE] | > 100 | 21 | > 100 | 6 | 42 | > 100 | 10 | 0.28 |
| 0.012 | 0.007 | 0.006 | CC(=O)SCCOP(=O)(OCCSC(C)=O)OCC1C=CC(n2cc(C)c(=O)[nH]c2=O)O1 (stereo not given) | > 100 | – | 68 | – | 22 | 60 | 19 | 0.016 |
